Test results from patent publication US11801272B2, “Bacillus strains improving health and performance of production animals” (Novozymes A/S, priority 2015, dated 2023).
Values after ≈ are worked out from the molar mass of the structure shown. Read-outs that look alike come from different tables or passages of the source. Where a SMILES comes first, the peptide text is derived from it. Bridges are numbered along the chain shown (N, C = ends). [ ]: non-standard residue; d: D form. The star is where a group is joined. Ileψ(thiazoline)Cys = CC[C@H](C)[C@H](N)C1=N[C@H](C(=O)*)CS1; dOrn = NCCC[C@@H](N)C(=O)O

Columns and labels:
Clostridium perfringens = assay type: in vivo, broiler chickens Cobb×Cobb; conditions: infected, bacitracin 50 ppm
B. subtilis DSM 29871 = assay type: cell-based; conditions: Bacillus subtilis
[1] = system: B. amyloliquefaciens DSM 29869; assay type: cell-based; conditions: Bacillus amyloliquefaciens, DSM29869, 37° C., 20-24 h
B. subtilis DSM 29870 = assay type: cell-based; conditions: Bacillus subtilis
[2] = Trial 1, DSM 29870 1.10^9 CFU/kg of feed
[3] = Trial 3, DSM 29870 5.10^8 CFU/kg of feed

Row | Compound | Dead birds with necrotic enteritis lesions (d1-d28) (Clostridium perfringens; [2]) [b %] | Total mortality (d1-d28) (Clostridium perfringens; [2]) [b %] | Dead birds with necrotic enteritis lesions (d1-d28) (Clostridium perfringens; Trial 2, DSM 29870 5.10^8 CFU/kg of feed) [c %] | Dead birds with necrotic enteritis lesions (d1-d28) (Clostridium perfringens; [3]) [bc %] | Total mortality (d1-d28) (Clostridium perfringens; [3]) [a %] | MIC (B. subtilis DSM 29871; DSM29871, read-out: MIC 1) [µg/mL] | MIC (B. subtilis DSM 29871; DSM29871, read-out: MIC 2) [µg/mL] | MIC (B. subtilis DSM 29871; DSM29871, read-out: MIC 3) [µg/mL] | MIC ([1]; biological replicate 1, read-out: MIC 1) [µg/mL] | MIC ([1]; biological replicate 2, read-out: MIC 2) [µg/mL] | MIC ([1]; biological replicate 3, read-out: MIC 3) [µg/mL] | MIC (B. subtilis DSM 29870; DSM29870, read-out: MIC 1) [µg/mL] | MIC (B. subtilis DSM 29870; DSM29870, read-out: MIC 2) [µg/mL] | MIC (B. subtilis DSM 29870; DSM29870, read-out: MIC 3) [µg/mL]
1 | CC[C@H](C)[C@H](N)C1=N[C@H](C(=O)N[C@@H](CC(C)C)C(=O)N[C@H](CCC(=O)O)C(=O)N[C@H](C(=O)N[C@H]2CCCCNC(=O)[C@H](CC(N)=O)NC(=O)[C@@H](CC(=O)O)NC(=O)[C@H](Cc3cnc[nH]3)NC(=O)[C@@H](Cc3ccccc3)NC(=O)[C@H]([C@@H](C)CC)NC(=O)[C@@H](CCCN)NC2=O)[C@@H](C)CC)CS1 [bacitracin] ({Ileψ(thiazoline)Cys}-L[dE]IK[dOrn]I[dF]H[dD]N; lactam 4-C) | 1.6 | 5.0 | 6.3 | 4.7 | 15.0 |  |  |  |  |  |  |  |  | 
2 | CN[C@H](CC(C)C)C(=O)N[C@H]1C(=O)N[C@@H](CC(N)=O)C(=O)N[C@H]2C(=O)N[C@H]3C(=O)N[C@H](C(=O)N[C@H](C(=O)O)c4cc(O)cc(O)c4-c4cc3ccc4O)[C@H](O)c3ccc(c(Cl)c3)Oc3cc2cc(c3O[C@@H]2O[C@H](CO)[C@@H](O)[C@H](O)[C@H]2O[C@H]2C[C@](C)(N)[C@H](O)[C@H](C)O2)Oc2ccc(cc2Cl)[C@H]1O [Vancomycin] |  |  |  |  |  | 0.25 (≈ 0.173 µM) | 0.25 (≈ 0.173 µM) | 0.25 (≈ 0.173 µM) | 0.25 (≈ 0.173 µM) | 0.25 (≈ 0.173 µM) | 0.25 (≈ 0.173 µM) | 0.25 (≈ 0.173 µM) | 0.25 (≈ 0.173 µM) | 0.25 (≈ 0.173 µM)
